Values of other authors as cited in patent publication US20070122458A1, “Nicotine and Chocolate Compositions” (priority 2001, published 2007).

Experiments:
[1] = smoker, cigarette smoking
[2] = intravenous infusion; smokers and non-smokers similarly
[3] = nasal solution insufflation; smokers and non-smokers; not "sweets"

CN1CCCC1c1cccnc1 (stereo not drawn) [nicotine]
time to peak blood levels of nicotine after starting smoking [1]: 5 to 10 min
increase of the resting metabolic rate [2]: 6.5%
perceived taste intensity of dietary "fat" [3]: significantly reduced
